Measured values published in US20190255083A1 (priority 2011, published 2019).

Tests used:
[1] = system: mixed microbiota of three infants (fecal slurry); assay: Anaerobic culture of infant fecal microbiota with oligosaccharide substrate; format: cell-based, human infant feces; settings: 24 h
Experimental: First, the impact of 2′-FL and HMO were examined on fresh samples of mixed microbiota of three infants. A carbohydrate-free basal medium was prepared according to Hughes (Hughes S, et al. 2008 FEMS Microbiol Ecol, 64(3): 482-93) to study the growth of fecal bacteria during fermentation of human milk oligosaccharides (HMO) or 2′-FL. This basal medium contained per liter: 2 g peptone (Oxoid Ltd., Basingstoke, UK), 2 g yeast extract (Oxoid), 0.1 g NaCl, 0.04 g K2HPO4, 0.01 g MgSO4.7H2O, 0.01 g CaCl2.6H2O, 2 g NaHCO3, 0.005 g haemin (Sigma), 0.5 g L-cysteine HCl (Sigma), 0.5 g bile salts (Oxoid), 2 ml Tween 80, 10 μl vitamin K (Sigma), and 4 ml of 0.025% (w/v) resazurin solution. Anaerobic culture methods were those described in Bryant (Bryant, M 1972 Am J Clin Nutr, 25(12): 1324-8) using Hungate culture tubes, sealed with butyl rubber septa. Media were prepared and maintained anaerobically using O2-free CO2.
Fresh fecal samples were collected from three healthy babies, identified as A, B and C, who had not received antibiotics or pre/probiotics and had no history of gastrointestinal disorder. Fresh human infant feces were added to phosphate-buffered sterile anaerobic saline solution (1:10 feces to saline), mixed in a blender for 60 s, homogenized and filtered through a double layer of sterile cheesecloth. 2 g/L 2′FL and 5 g/L HMO were dissolved for 1 hour in medium before inoculation with 10% (v/v) fecal slurry prepared as above. Hungate tubes containing 2′-FL or HMO were inoculated with fecal material, serving as the treatment. Hungate tubes containing no substrate were also inoculated with feces, to serve as negative control. All tubes were incubated at 37° C. Culture supernatant samples were taken at 24 h. All samples were stored at −20° C. for further analysis. FIGS. 1, 2 and 3 show the results. Prebiotics are associated with an increase in the numbers of microbiota, especially bifidobacteria and lactobacilli, a decrease in gut pH, and an increase in lactic acid. […] These changes are all characteristic of prebiotics.

[2] = system: purified bacterial strains isolated from human microbiota (Table 1: Bifidobacterium longum, Bacteroides vulgatus, Bacteroides fragilis, Clostridium …); format: cell-based, bacterial isolates, mainly from human (infant) feces; settings: for growth (optical density, OD 600 nm) of individual bacterial isolates / final culture pH of individual bacterial isolates: 2 g/L 2′-FL, 3-FL, LDFT or FOS, 5 g/L HMOS, ZMB1 medium, for most of these bacteria; for growth (optical density, OD 600 nm) of individual bacterial isolates / final culture pH of individual bacterial isolates / decrease in culture pH compared with FOS: 48 h; for growth (optical density, OD 600 nm) of individual bacterial isolates: anaerobic, 37° C.; for decrease in culture pH compared with FOS: 2 g/L each, in most cases; for production of lactic acid: summary statement, for FOS: fecal slurrys and individual bacteria of the human microbiome
[3] = system: pathogenic strains of Campylobacter; settings: background statement; cited from earlier work

Substance	pH of infant microbiota cultures ([1]; 2′-FL 2 g/L, HMOS 5 g/L, three microbial communities, FIG. 2)	lactic acid produced in infant microbiota cultures ([1]; 2′-FL 2 g/L, HMOS 5 g/L, three microbial communities, compared to controls, FIG. 3)	total bacteria (bacterial growth) in infant microbiota cultures ([1]; 2′-FL at 2 g/L, HMOS at 5 g/L, fecal slurry of 3 infants (A, B, C), 37° C., anaerobic, vs no-substrate control, FIG. 1)	growth (optical density, OD 600 nm) of individual bacterial isolates [2]	final culture pH of individual bacterial isolates [2]	decrease in culture pH compared with FOS [2]	production of lactic acid [2]	Campylobacter binding and infectivity [3]
2′-fucosyllactose [2′-FL]	pH is reduced	significantly higher amounts of lactic acid are produced compared to controls	induced an increase in total bacteria	growth was stimulated (to various degrees)	the pH of cultures decreased	at least as great	induce the production of lactic acid	inhibited
lactodifucotetraose [LDFT]				growth was stimulated (to various degrees)	the pH of cultures decreased	at least as great	induce the production of lactic acid	
3-fucosyllactose [3-FL]				growth was stimulated (to various degrees)	the pH of cultures decreased	at least as great	induce the production of lactic acid	
